The test system of data set [1] is SBC-3. The experiment in a line: cells. To be noted: Homo sapiens, SBC-3, 72 h.
The subject of the next data set is Hec-1B cells. The experiment in a line: Endometrial carcinoma cell proliferation. Conditions: wild type FGFR2; 4 days.
Another data set deals with JAR. Description: cells. To be noted: Homo sapiens, 72 h.
In data set [2] the test system is A2780. The experiment in a line: Survival pathways immunoblot. Conditions: 200 nM, 6 hours. (In general: In western blotting, separated proteins are transferred to a membrane and probed.)
A further data set concerns TOV-112D. The experiment in a line: cells. Conditions: Homo sapiens, TOV112D, 72 h.
The test system of the next data set is G-402. The experiment in a line: cells. Conditions: Homo sapiens, G-402, 72 h.
The test system of the next data set is KATO-III. The experiment in a line: Pro-survival signaling. Conditions: 200 nM, 6 hours.
A further data set relates to VM-CUB1. The experiment in a line: cells. To be noted: Homo sapiens, VM-CUB-1, 72 h.
The next data set has as its system RT4. The experiment in a line: cells. Conditions: Homo sapiens, RT-4, 72 h.
The test system of a further data set is PA-1. Description: cells. To be noted: Homo sapiens, PA-1, 72 h.
The subject of data set [3] is SNU-16. Description: Pro-survival signaling. Conditions: 200 nM, 6 hours.
The test system of the next data set is R082-W-1. The experiment in a line: cells. Conditions: Homo sapiens, 72 h.
Data set [4] has as its system SBC-3. Description: Survival pathways immunoblot. To be noted: 200 nM, 6 hours.
A further data set relates to FU97. Description: cells. To be noted: Homo sapiens, Fu97, 72 h.
The subject of a further data set is wild-type Ba/F3 cells. The experiment in a line: cells. Conditions: Mus musculus, BaF3, 48 h.
The subject of data set [5] is iFGFR1-activated MCF10A cells. Description: 3D Matrigel culture morphogenesis. The class given is cell-based. To be noted: 3D culture.
The next data set relates to A2.1. Description: cells. To be noted: Homo sapiens, 72 h.
The subject of a further data set is JHH-7. The experiment in a line: cells. Conditions: Homo sapiens, JHH7, 72 h.
For data set [6], the system named is SNU-16. The experiment in a line: cells. Conditions: Homo sapiens, SNU-16, 72 h.
The subject of a further data set is RD-ES. Description: cells. Conditions: Homo sapiens, 72 h.
The next data set relates to LU99A. The experiment in a line: cells. To be noted: Homo sapiens, LU-99A, 72 h.
The test system of a further data set is NCI-H1703. The experiment in a line: cells. To be noted: Homo sapiens, NCI-H1703, 72 h.
Another data set has as its system G-401. The experiment in a line: cells. To be noted: Homo sapiens, G-401, 72 h.
In the next data set the test system is H520. Description: cells. Conditions: Homo sapiens, NCI-H520, 72 h.
Another data set relates to wild-type MCF10A cells. Description: Growth of wild-type MCF10A cells. Format: cell-based.
The target in a further data set is FLT1 (Homo sapiens, UniProt P17948). The experiment in a line: Z'-lyte kinase assay. Format: biochemical.
The test system of data set [7] is A2780. Description: cells. To be noted: Homo sapiens, A2780, 72 h.
The test system of another data set is WT iFGFR1 MCF10A cells. The experiment in a line: iFGFR1-dependent MCF10A proliferation. Conditions: Homo sapiens, MCF-10A, 48 h.
In the next data set the target is FGFR1 (Homo sapiens, UniProt P11362). Conditions: ref Kammasud et al., 2007; cited from earlier work.
The target of another data set is V561M FGFR1 (Homo sapiens, UniProt P11362, V561M). To be noted: 10 μM, 1 hour drug treatment, HEK293.
Another data set relates to KATO III. Description: cells. To be noted: Homo sapiens, 72 h.
In another data set the test system is STS-0421. Description: cells. Conditions: Homo sapiens, 72 h.
In a further data set the test system is AN3CA cells. The experiment in a line: Endometrial carcinoma cell proliferation. To be noted: activating FGFR2 mutation; 4 days.
For another data set, the system named is MFE-296 cells. The experiment in a line: Endometrial carcinoma cell proliferation. To be noted: activating FGFR2 mutation; 4 days.

V561M FGFR1, sequence (P11362 22-822 V561M): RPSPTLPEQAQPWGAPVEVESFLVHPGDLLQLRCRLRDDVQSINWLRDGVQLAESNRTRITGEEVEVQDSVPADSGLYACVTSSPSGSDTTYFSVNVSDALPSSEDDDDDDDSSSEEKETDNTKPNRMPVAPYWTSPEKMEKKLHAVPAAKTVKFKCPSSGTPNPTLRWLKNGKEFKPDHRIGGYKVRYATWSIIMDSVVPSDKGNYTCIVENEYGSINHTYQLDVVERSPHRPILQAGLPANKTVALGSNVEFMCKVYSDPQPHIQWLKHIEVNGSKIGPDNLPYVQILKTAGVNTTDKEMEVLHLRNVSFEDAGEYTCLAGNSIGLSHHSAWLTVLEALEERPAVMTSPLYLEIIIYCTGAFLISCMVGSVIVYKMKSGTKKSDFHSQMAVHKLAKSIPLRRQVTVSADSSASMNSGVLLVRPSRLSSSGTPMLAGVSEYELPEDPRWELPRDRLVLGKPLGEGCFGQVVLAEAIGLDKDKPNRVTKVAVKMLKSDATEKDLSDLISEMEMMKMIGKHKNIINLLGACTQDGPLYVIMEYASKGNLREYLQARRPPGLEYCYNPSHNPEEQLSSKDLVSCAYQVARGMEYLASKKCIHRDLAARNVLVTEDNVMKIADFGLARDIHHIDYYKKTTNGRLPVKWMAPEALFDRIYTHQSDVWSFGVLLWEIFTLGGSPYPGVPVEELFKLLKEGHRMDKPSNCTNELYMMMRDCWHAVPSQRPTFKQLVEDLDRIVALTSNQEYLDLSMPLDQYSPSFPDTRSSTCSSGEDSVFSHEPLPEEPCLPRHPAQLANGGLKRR
FLT1, sequence (P17948 27-1338): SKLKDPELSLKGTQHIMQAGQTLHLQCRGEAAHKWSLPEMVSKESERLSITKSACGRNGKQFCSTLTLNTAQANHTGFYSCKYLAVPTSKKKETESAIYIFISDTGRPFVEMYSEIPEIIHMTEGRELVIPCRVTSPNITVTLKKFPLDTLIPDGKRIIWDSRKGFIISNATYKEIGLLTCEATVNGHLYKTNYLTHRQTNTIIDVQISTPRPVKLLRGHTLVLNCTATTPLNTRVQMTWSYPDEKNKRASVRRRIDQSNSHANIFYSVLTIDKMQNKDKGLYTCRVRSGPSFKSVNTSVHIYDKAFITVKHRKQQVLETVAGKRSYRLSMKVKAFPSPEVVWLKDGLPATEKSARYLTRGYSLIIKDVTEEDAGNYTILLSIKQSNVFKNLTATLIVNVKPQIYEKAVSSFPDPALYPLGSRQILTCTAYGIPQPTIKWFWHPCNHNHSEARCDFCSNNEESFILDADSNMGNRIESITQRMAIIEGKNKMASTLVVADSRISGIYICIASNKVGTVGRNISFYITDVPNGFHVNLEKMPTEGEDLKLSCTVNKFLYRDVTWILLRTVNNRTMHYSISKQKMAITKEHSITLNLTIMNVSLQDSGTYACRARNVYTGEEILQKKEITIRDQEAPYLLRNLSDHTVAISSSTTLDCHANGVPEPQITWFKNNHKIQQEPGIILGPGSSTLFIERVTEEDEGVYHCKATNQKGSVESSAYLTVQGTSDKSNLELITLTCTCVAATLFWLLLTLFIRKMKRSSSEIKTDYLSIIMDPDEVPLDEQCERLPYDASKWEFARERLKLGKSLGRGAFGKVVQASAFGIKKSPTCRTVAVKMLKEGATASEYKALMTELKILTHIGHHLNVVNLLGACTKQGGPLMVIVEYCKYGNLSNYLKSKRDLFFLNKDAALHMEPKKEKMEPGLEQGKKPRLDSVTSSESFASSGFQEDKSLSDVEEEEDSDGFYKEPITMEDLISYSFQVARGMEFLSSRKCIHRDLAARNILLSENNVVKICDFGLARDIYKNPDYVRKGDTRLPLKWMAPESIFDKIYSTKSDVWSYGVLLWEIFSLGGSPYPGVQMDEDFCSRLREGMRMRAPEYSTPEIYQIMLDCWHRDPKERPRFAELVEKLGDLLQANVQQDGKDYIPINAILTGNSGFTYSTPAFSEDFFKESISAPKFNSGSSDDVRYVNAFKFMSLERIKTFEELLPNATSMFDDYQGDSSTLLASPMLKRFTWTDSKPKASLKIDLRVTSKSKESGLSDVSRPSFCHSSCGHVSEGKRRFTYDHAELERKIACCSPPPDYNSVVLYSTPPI
FGFR1, sequence (P11362 22-822): as the sequence (P11362 22-822 V561M) above, with M540V counted along it

As for `C=CC(=O)Nc1cccc(CN2C(=O)N(c3c(Cl)c(OC)cc(OC)c3Cl)Cc3cnc(NCCCCN(CC)CC)nc32)c1` [FIIN-1], the EC50 (as a rule, the concentration at which the effect is half-maximal) with SBC-3 [1] is 80 nM; in the data set on JAR it was more than 5000 nM; in the data set with TOV-112D it was more than 5000 nM; in the data set on G-402 it was 1650 nM; with VM-CUB1 it was more than 5000 nM; with RT4, 70 nM. Moreover, the EC50 in the data set on PA-1 is 4600 nM; with R082-W-1 it was more than 5000 nM; in the data set with FU97 it was 650 nM; in the data set with wild-type Ba/F3 cells, more than 10000 nM; in the data set with A2.1, 230 nM; with JHH-7, more than 5000 nM. The EC50 in the data set with SNU-16 [6] was 30 nM; in the data set on RD-ES, 2300 nM; in the data set on LU99A, more than 5000 nM; in the data set on NCI-H1703 it was more than 5000 nM; in the data set with G-401, 140 nM; with H520, 4500 nM. Also, the EC50 in the data set on A2780 [7] stood at 220 nM; with WT iFGFR1 MCF10A cells it was 2.7 nM. In addition, the “sensitivity in cell proliferation assay” value with Hec-1B cells is reported as “not sensitive”. Further, the “effect on cell survival and survival pathways” value in the data set on A2780 [2] and in the data set on SBC-3 [4] was “inhibited” each time. The “effect on pro-survival Akt and Erk1/2 pathways” value with KATO-III and in the data set with SNU-16 [3] was “potently suppressed” in each case. Further, in data set [5] (20 nM), the “effect on abnormal morphogenesis induced by iFGFR1 activation” value is recorded as “prevented”. For the same compound, the “effect on growth of wild-type MCF10A cells” value in the data set on wild-type MCF10A cells was “neither FIIN-1 nor PD173074 affected the growth”. In addition, the IC50 (usually the midpoint of a concentration-inhibition curve) at FLT1 came out at 661 nM.

On to `COc1cc(OC)cc(-c2ccc3c(c2)NC(=O)/C3=C\c2[nH]c(C)c(CCC(=O)O)c2C)c1` [NP603], for which the IC50 on FGFR1 is 400 nM.

On to `CCN(CC)CCCCNc1ncc2cc(-c3cc(OC)cc(OC)c3)c(NC(=O)NC(C)(C)C)nc2n1` [PD173074, reference compound], for which the EC50 was 320 nM in the data set on SBC-3 [1]; more than 5000 nM with JAR; more than 5000 nM with TOV-112D; 2480 nM in the data set with G-402; more than 5000 nM with VM-CUB1; 50 nM in the data set with RT4. For the same compound, the 50% effective concentration (EC50) with KATO III was 22 nM; in the data set with PA-1 it was more than 5000 nM; in the data set with R082-W-1, 2500 nM; in the data set with STS-0421, 120 nM; in the data set on FU97 it was 1160 nM; in the data set with A2.1, 340 nM. The EC50 is more than 5000 nM in the data set with JHH-7; 120 nM in the data set on SNU-16 [6]; more than 5000 nM with RD-ES; 3000 nM with LU99A; more than 5000 nM with NCI-H1703; 210 nM in the data set with G-401. In addition, the EC50 in the data set on H520 was more than 5000 nM; with A2780 [7], 820 nM. In addition, the “sensitivity in cell proliferation assay” value with Hec-1B cells is reported as “not sensitive”. Further, on V561M FGFR1, the “inhibition of autophosphorylation of FGFR1-V561M” value is “incapable of inhibiting”. The “effect on abnormal morphogenesis induced by iFGFR1 activation” value in data set [5] (1 μM) was “prevented”. The “EC50 (sensitivity in cell proliferation assay)” value in the data set on AN3CA cells and with MFE-296 cells was “sub-micromolar” throughout. Further, the “effect on growth of wild-type MCF10A cells” value in the data set with wild-type MCF10A cells is “neither FIIN-1 nor PD173074 affected the growth”.

Values taken from PMC2920453 (Chemistry & biology, 2010).
